Laboratory results reported in patent US7666685B2, “Screening method for identification of compounds suitable for treatment of oral cavity malodor associated with consumption of garlic” (Wm. Wrigley Jr. Company, priority 2005, dated 2010).
“And” between values parts separate entries of the source, which are not always exact repeats. Equal values may be shown once.

Columns and labels:
[1] = In vitro dose response: SPME GC/MS headspace analysis of raw macerated garlic solution treated with active; settings: for GC/MS Peak Area (diallyl disulfide headspace): individual runs; for GC/MS Peak Area (diallyl disulfide headspace), Mean: mean of 3 runs; for reduction of diallyl disulfide headspace concentration: vs control garlic solution
Experimental: A model solution containing raw chopped garlic (20 g) dispersed in water (200 ml) was prepared by blending in a Waring commercial blender (Waring Commercial, Torrington, Conn.) at low power for 30 seconds and at high power for 30 seconds. The resulting solution was homogeneous with no visible garlic particles present.
A portion of the raw, macerated garlic solution (5 g) was treated with different levels of potential ameliorating actives and the headspace was extracted and analyzed (as described in greater detail below) to determine the effect of the potential actives on the headspace concentration of compounds contributing to oral cavity malodor associated with consumption of garlic.
Headspace of a vessel containing a portion of the garlic solution (5 ml) treated with a potential active was extracted for 60 minutes utilizing solid phase microextraction (SPME) with a 75 μm Carboxen-polydimethyl siloxane fiber (Supelco, Bellefonte, Pa.).
The SPME fiber assembly was injected into an Agilent 6890 gas chromatograph (GC)/mass spectrometer (MS) modified for multidimensional analyses and equipped with a sniff port and Aroma Trax software (Microanalytics, Round Rock, Tex.). Fibers remained in the GC injection port for five minutes following injection.
The GC/MS operating parameters included a He carrier gas flow rate of 6.5 ml/min, split mode (2:1) and the injector set at 250° C. Column 1 was 12 meter, 0.53 mm I.D. with a methyl silica stationary phase. Column 2 was a 25 meter, 0.53 mm DB-5 capillary column. The oven was programmed to hold at 40° C. for 3 minutes and to heat to 220° C. at a rate of 7° C./min and hold at 220° C. for 20 minutes. The MS operated in Electron Impact Mode (E.I.) at 70 eV.
A model solution containing raw chopped garlic dispersed in water was prepared as described in Example 1. […] For comparison purposes, the diallyl disulfide content of the headspace of a control model solution (i.e., no menthone added) was also analyzed.

[2] = Sensory analysis: ten panelists rate the odor intensity of the raw macerated garlic solution with added active; settings: for Odor Intensity (0–100): individual panelists, 0=no odor, 100=very strong odor; for Odor Intensity (0–100), Mean: mean of N = 10 panelists
Experimental: Sensory analysis of the solutions utilized for analytical analyses of the raw garlic described above was conducted by ten panelists who evaluated the odor intensity of the model solution (raw macerated garlic) with and without the different levels of added active. Odor intensity was assessed utilizing a 0-100 point scale ballot with 0=no odor and 100=very strong odor.

Compound: caryophyllene
- GC/MS Peak Area (diallyl disulfide headspace) ([1]; 0.1 mg/g garlic solution): 52155883 and 49803124 and 56316479
- GC/MS Peak Area (diallyl disulfide headspace), Mean ([1]; 0.1 mg/g garlic solution): 52758495
- GC/MS Peak Area (diallyl disulfide headspace) ([1]; 0.24 mg/g garlic solution): 67591321 and 69400527 and 61729644
- GC/MS Peak Area (diallyl disulfide headspace), Mean ([1]; 0.24 mg/g garlic solution): 66240497
- GC/MS Peak Area (diallyl disulfide headspace) ([1]; 0.4 mg/g garlic solution): 93422075 and 91167385 and 94368797
- GC/MS Peak Area (diallyl disulfide headspace), Mean ([1]; 0.4 mg/g garlic solution): 92986086
- reduction of diallyl disulfide headspace concentration ([1]; active concentration 0.1 mg/g): 34%
- reduction of diallyl disulfide headspace concentration ([1]; active concentration 0.4 mg/g): 63%
- Odor Intensity (0–100) ([2]; 0.1 mg/g): 5 (3×) and 6 (2×) and 2 and 4 (3×) and 7
- Odor Intensity (0–100), Mean ([2]; 0.1 mg/g): 4.8
- Odor Intensity (0–100) ([2]; 0.2 mg/g): 4 (2×) and 5 (3×) and 9 (2×) and 8 and 3 (2×)
- Odor Intensity (0–100), Mean ([2]; 0.2 mg/g): 5.5
- Odor Intensity (0–100) ([2]; 0.4 mg/g): 2 and 5 and 3 (3×) and 4 (3×) and 0 and 1
- Odor Intensity (0–100), Mean ([2]; 0.4 mg/g): 2.9
- decrease of odor intensity (sensory) ([2]; active concentration 0.1 mg/g): 52%
- decrease of odor intensity (sensory) ([2]; active concentration 0.4 mg/g): 71%

Compound: CC(C)[C@@H]1CC[C@@H](C)CC1=O [menthone]
- GC/MS Peak Area (diallyl disulfide headspace) ([1]; 0.3 mg/g garlic solution): 46610414 and 58241626 and 60764744
- GC/MS Peak Area (diallyl disulfide headspace), Mean ([1]; 0.3 mg/g garlic solution): 55205595
- GC/MS Peak Area (diallyl disulfide headspace) ([1]; 1 mg/g garlic solution): 20835556 and 16829160 and 16827232
- GC/MS Peak Area (diallyl disulfide headspace), Mean ([1]; 1 mg/g garlic solution): 18163983
- GC/MS Peak Area (diallyl disulfide headspace) ([1]; 3 mg/g garlic solution): 6746448 and 4757863 and 5868573
- GC/MS Peak Area (diallyl disulfide headspace), Mean ([1]; 3 mg/g garlic solution): 5790961.3
- less diallyl disulfide in headspace than control model solution ([1]; Example 3: 1.63 mg in 2.5 g model solution, at each headspace analysis interval (5 hour intervals)): at least 50%
- Odor Intensity (0–100) ([2]; 0.33 mg/g): 1 (2×) and 6 and 7 (4×) and 5 and 8 and 3
- Odor Intensity (0–100), Mean ([2]; 0.33 mg/g): 5.2
- Odor Intensity (0–100) ([2]; 1 mg/g): 1 and 2 (6×) and 4 (2×) and 6
- Odor Intensity (0–100), Mean ([2]; 1 mg/g): 2.7
- Odor Intensity (0–100) ([2]; 3 mg/g): 2 (2×) and 0 (2×) and 4 (2×) and 3 (2×) and 1 (2×)
- Odor Intensity (0–100), Mean ([2]; 3 mg/g): 2
- reduction of odor of raw macerated garlic in water (sensory) ([2]; active concentration 0.3 mg/g): 48%
- reduction of odor of raw macerated garlic in water (sensory) ([2]; active concentration 3 mg/g): 80%
